Our source for the Kd values is publication PMC8996072, “Ag120-Mediated Inhibition of ASCT2-Dependent Glutamine Transport has an Anti-Tumor Effect on Colorectal Cancer Cells” (Frontiers in Pharmacology, 2022).

One may read the Kd as the constant that tells how readily two partners part at equilibrium.

This assay has as its target T1, ASCT2 (Homo sapiens, UniProt Q15758).
T1 construct: gene SLC1A5
T1 sequence (Q15758 1-541): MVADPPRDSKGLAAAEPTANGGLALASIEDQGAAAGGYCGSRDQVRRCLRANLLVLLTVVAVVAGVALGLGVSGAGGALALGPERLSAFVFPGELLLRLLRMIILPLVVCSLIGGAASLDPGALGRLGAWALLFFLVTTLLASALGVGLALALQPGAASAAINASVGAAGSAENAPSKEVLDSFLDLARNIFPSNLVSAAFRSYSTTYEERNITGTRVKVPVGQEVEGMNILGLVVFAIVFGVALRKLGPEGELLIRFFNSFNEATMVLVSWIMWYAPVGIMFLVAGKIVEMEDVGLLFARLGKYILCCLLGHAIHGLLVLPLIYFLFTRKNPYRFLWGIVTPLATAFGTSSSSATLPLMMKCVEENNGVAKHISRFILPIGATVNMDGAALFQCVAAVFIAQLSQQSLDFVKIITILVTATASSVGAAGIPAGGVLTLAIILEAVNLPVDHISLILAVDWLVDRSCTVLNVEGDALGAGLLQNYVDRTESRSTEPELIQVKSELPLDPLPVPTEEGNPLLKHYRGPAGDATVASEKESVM
The assay can be described thus: SPR (Biacore T200), purified human ASCT2. It counts as binding.

Compound `N#Cc1ccnc(N2C(=O)CC[C@H]2C(=O)N(c2cncc(F)c2)[C@H](C(=O)NC2CC(F)(F)C2)c2ccccc2Cl)c1` [Ag120] gave a Kd of 5.91 µM.
